The nature of the data set: Human HepG2 cell viability assay in 384 well format. It counts as toxicity, cell-based. More on the design: dose 125 nL, time 70.5 hour; concentration not given beside the values. The note with it: HepG2 cells, read-out: Inhibition.

With `CCn1nnc(NCc2ccccc2OCc2ccc(Cl)cc2)n1`, the cytotoxicity at 70.5 h is -7.27%. The result for `CC(=O)Nc1ccccc1Sc1nc(Br)nn1C` reads -4.88%; that for `CC(=O)Nc1c(C)noc1/C=C\c1ccc(C)c(S(=O)(=O)NC2CC2)c1`, -6.84%; that for `CN1C(=N)NC(=O)/C1=C\c1ccc(-c2ccc(F)cc2)o1`, 28.8%.

Regarding `CCCOC(=O)c1ccc(-c2ccc(/C=C3\C(=O)NC(=N)N3C)o2)cc1`, the cytotoxicity at 70.5 h stood at 18.1%. To `COCCNC(=O)c1ccc2c(=O)n3c(nc2c1)CCCCC3` belongs -22.9%; to `Cc1ccc(Nc2cc(N3CCN(S(C)(=O)=O)CC3)nc(C)n2)cc1`, -17.3%; to `COCCCNC(=O)Cn1c(C)cc(=O)n2nc(-c3cccs3)nc12`, -7.89%.

Regarding `COc1cccc(N2CCN(C(=O)c3noc4c3CCCC4)CC2)c1`, the cytotoxicity at 70.5 h was -20.2%. To `O=C(NCc1ccco1)c1cccc(C(=O)NCc2ccco2)n1` belongs -20.3%. The result for `Cc1ccc(S(=O)(=O)n2ccn(C(=O)CC(C)C)c2=O)cc1` reads -19.3%; that for `CCC(CC)C(=O)n1ccn(S(=O)(=O)c2ccc(C)cc2)c1=O`, 15.1%; that for `CCc1nc(-c2ccc(C(=O)N3CCC4(CC3)OCCO4)cc2)no1`, -21.2%. The result for `CCc1nc(-c2ccc(NC(=O)N3CCCC3)cc2)no1` reads -19.3%; that for `CCc1nc(-c2ccc(NC(=O)N3CCOCC3)cc2)no1`, -3.86%. For the compound `O=C(Nc1ccc(Br)cc1F)c1cc(CN2CCOCC2)on1`, the cytotoxicity at 70.5 h was -5.21%. To `CCOC(=O)CNC(=O)NCc1cccn1Cc1ccccc1` belongs -13.4%; to `CCOC(=O)CNC(=O)NCc1cccn1Cc1cccc(C)c1`, -18.9%.

For `COCCCNC(=O)NCc1cccn1Cc1ccccc1C`, the cytotoxicity at 70.5 h was -20.3%. To `CCCN1CCN(C(=O)CCn2cccc2)CC1` belongs -5.28%; to `O=C(NCCCc1ccco1)c1cnc(N2CCOCC2)nc1`, -18.7%; to `CC(=O)N1N=C(COc2ccc(Cl)cc2)OC1c1ccccc1` (stereo unspecified), 17%. To `COCCn1c(-c2cccc(OC)c2)cnc1NC(=O)NC1CCCC1` belongs 6.84%; to `COCCn1c(-c2cccc(OC)c2)cnc1NC(=O)NCCC(C)C`, -12.5%. The result for `CC(C)[C@H]1CN(C(=O)CO)C[C@@H]1N(C)C` reads -13.8%; that for `Cc1cc(C(=O)N2CC[C@H](N3CCN(C)CC3)[C@H](CCCO)C2)n(C)n1`, -6.07%; that for `Cc1c(Cl)cccc1S(=O)(=O)N1C[C@@H]2CC[C@H](C1)N(C)C2=O`, 1.2%. Turning to `CCCc1nc(C(=O)NC(COC)c2ccnn2C)cs1` (stereo unspecified), the cytotoxicity at 70.5 h was -10.8%.

For the compound `CC(=O)N1CCc2c(nc(N(C)C)nc2NCCCn2ccnc2C)C1`, the cytotoxicity at 70.5 h is -4.2%. To `Nc1nnc(CCCNC(=O)c2ccc(C3CCCNC3)cc2)s1` (stereo unspecified) belongs 8.02%; to `O=C1Nc2ccccc2C12CCCN(Cc1ccc3c(c1)OCCO3)C2` (stereo unspecified), -11.8%. Regarding `CCn1c(C)nnc1SCCNC(=O)c1sc(C(C)C)nc1C`, the cytotoxicity at 70.5 h was -7.2%.

As for `CC(C)OC(=O)N1C[C@H]2CC[C@@H]1CN(C(=O)c1ccccc1)C2`, the cytotoxicity at 70.5 h was -2.95%.

On to `COCC1(C(=O)N[C@H]2CN(c3ccnc(C)c3)C[C@@H]2C2CC2)CCC1`, for which the cytotoxicity at 70.5 h was -8.46%. To `COC(=O)CCC(=O)NCc1cccnc1N1CCc2ccccc2C1` belongs 3.31%. Consider `CN1CCC(CNC(=O)c2cccc(CN3CCCCCC3)c2)C1` (stereo unspecified), for which the cytotoxicity at 70.5 h was -5.88%. The result for `CCNc1ncc(-c2cc(-c3ccn(C)c3)nc(N)c2C#N)cn1` reads -11.6%; that for `COCCn1ccnc1CN1CCc2[nH]cnc2C1c1cccc(O)c1` (stereo unspecified), -14.3%; that for `CCCc1nnc(N2CCN(c3cccc(C)c3C)CC2)o1`, -14.8%. The result for `Cc1cncc(C2CCCN(C(=O)c3cccn3C)C2)n1` (stereo unspecified) reads -5.17%; that for `NC[C@H]1CC[C@H](C(NC(=O)c2ccccn2)c2ccccn2)CC1` (stereo partly specified), -4.69%. The result for `Cc1ccn(CCC(=O)N2CCOC(c3nc(-c4cccs4)no3)C2)n1` (stereo unspecified) reads -2.76%; that for `O=C(c1cnco1)N1CCCC(Cc2nccs2)C1` (stereo unspecified), -7.07%. Consider `C[C@]1(O)CCN(Cc2cncs2)C[C@@H]1Oc1cccc(F)c1`, for which the cytotoxicity at 70.5 h was -0.0777%. To `CCc1nccn1-c1cncc(C2CCCN2Cc2ccc(F)cc2)n1` (stereo unspecified) belongs 36.1%; to `CC1CCCCN1Cc1ccc(-c2ccccc2C(=O)O)cc1` (stereo unspecified), 0.911%; to `COc1ncc(CN2CC[C@@](C)(O)[C@H](Oc3cccc(F)c3)C2)cn1`, 5.46%. The result for `Cc1nc(CN2CCCC(NCc3ccc4c(c3)CCO4)C2)no1` (stereo unspecified) reads 14.2%; that for `Cc1nc(C)n(C2CCCN(C(=O)CCOCC(C)C)C2)n1` (stereo unspecified), 11%; that for `Cc1nc(CN2CCCC(NCc3ccc4ccccc4c3)C2)no1` (stereo unspecified), -6.48%. To `CCc1nc(C2CCCN2CC(=O)Nc2cc(C)no2)no1` (stereo unspecified) belongs -5.2%; to `Cc1n[nH]c(C)c1NC(=O)CN1CCCC1c1noc(C2CC2)n1` (stereo unspecified), -18.5%; to `Cc1nc(C)n(C2CCCN(C(=O)CCCc3ccccn3)C2)n1` (stereo unspecified), -7.71%. For `Cc1cc(CN2CCCC2c2noc(C(C)C)n2)on1` (stereo unspecified), the cytotoxicity at 70.5 h is -15.4%. The result for `CC(C)c1nc(C2CCCN2Cc2ccon2)no1` (stereo unspecified) reads -10.9%; that for `CCc1nc(C2CCCN2CC(=O)Nc2cc(C)on2)no1` (stereo unspecified), -6.96%; that for `CCc1nc(C2CCCN2Cc2ccno2)no1` (stereo unspecified), -14.3%. To `Cc1cccc(C(=O)NCc2ccccc2)n1` belongs -15.5%. The result for `Cc1noc(C(C)C)c1C(=O)NCc1cccnc1` reads -16.6%. Consider `CNS(=O)(=O)Cc1ccc(CNC(=O)c2ccccn2)cc1`, for which the cytotoxicity at 70.5 h is -9.74%. To `CCNC(=O)C1CCN(Cn2nc(-c3ccc(F)cc3)oc2=O)CC1` belongs -13.2%. To `Cc1noc(C(C)C)c1C(=O)NCc1ccc2c(c1)OCCO2` belongs -5.36%; to `Cc1cccc(-c2nc(C)nn2CC(=O)NC(C)C2CC2)c1` (stereo unspecified), -5.76%. On to `Cc1nc(-c2ccccc2)n(CC(=O)NC2CCCC2)n1`, for which the cytotoxicity at 70.5 h is -13.6%. The result for `Cc1nc(CN2CCCC(NCc3cnn(C)c3)C2)no1` (stereo unspecified) reads -8.69%; that for `CC1CN(C)CCN1C(=O)c1ccn(-c2cccc(F)c2)n1` (stereo unspecified), -15.8%; that for `Cc1nc(CN2CCCC(NCc3nc4ccccc4s3)C2)no1` (stereo unspecified), -17.4%. The result for `CC1CN(C)CCN1C(=O)c1ccn(-c2ccc(F)cc2)n1` (stereo unspecified) reads -12.3%. To `Cc1cc(CN2CCN(c3ccc4nncn4n3)CC2)no1` belongs -11.5%; to `Cc1nc(CN2CCCC(NCc3sccc3C)C2)no1` (stereo unspecified), -2.7%.

As for `CN1CCN(C2CCN(CCCOc3ccc(F)cc3)CC2)C1=O`, the cytotoxicity at 70.5 h stood at 19.6%. To `CN1CCN(C2CCN(CCOc3ccccc3)CC2)C1=O` belongs -14.7%; to `COc1c(C2CCCN2C(=O)c2csc(C3CC3)n2)c(C)nn1C` (stereo unspecified), 15.2%; to `CC(C)c1noc(CN2CCCC2c2noc(C(C)C)n2)n1` (stereo unspecified), -9.32%. On to `COc1ccc(CNC(C)Cn2cccn2)cc1OC` (stereo unspecified), for which the cytotoxicity at 70.5 h was 1.53%. The result for `CCN1N=C(C(=O)N2CCCC(c3nc(C)c(C)s3)C2)CCC1=O` (stereo unspecified) reads -0.596%; that for `c1cnn(CC2CCCN2Cc2nc(C3CC3)no2)c1` (stereo unspecified), -8.97%. The result for `CC(C)(C)c1nc(CN2CCCC2Cn2cncn2)no1` (stereo unspecified) reads -5.99%; that for `CCOc1ccccc1OC1CCN(Cc2ccn(C)c(=O)c2)CC1`, 20.3%. To `Fc1ccc(Oc2ccc(CNCC3CNc4ccnn4C3)cn2)cc1` (stereo unspecified) belongs -12.4%; to `CCc1csc(C2CCCN(C(=O)c3cnc[nH]3)C2)n1` (stereo unspecified), -7.63%; to `COc1cc(CNC(C)Cn2cccn2)cc(OC)c1` (stereo unspecified), -9.25%. With `c1ccc(Cc2noc(CN3CCCCC3Cn3cccn3)n2)cc1` (stereo unspecified), the cytotoxicity at 70.5 h was -9.87%.

For `CC1CCCN(CCNC(=O)c2ccn(-c3ccc(F)cc3)n2)C1` (stereo unspecified), the cytotoxicity at 70.5 h is -0.389%. Turning to `Cc1cccc(C)c1OC1CCN(Cc2ccn(C)c(=O)c2)CC1`, the cytotoxicity at 70.5 h is -5.76%. The result for `COc1ccc(CNCC2CNc3ccnn3C2)cn1` (stereo unspecified) reads -3.27%. The result for `CC(C)C(NC(=O)NCCNc1cnccn1)c1cccs1` (stereo unspecified) reads -11.6%. In the case of `Cc1nc(-c2ccccc2)sc1CNC1CCc2ncnn2C1` (stereo unspecified), the cytotoxicity at 70.5 h is -10.6%.

As to `Fc1ccc(-c2nc(CNC3CCc4ncnn4C3)co2)cc1` (stereo unspecified), the cytotoxicity at 70.5 h was -4.87%.

With `Cc1cc(CNC(=O)NCc2cccs2)no1`, the cytotoxicity at 70.5 h was -5.03%. `CCc1csc(C2CCCN(C(=O)c3cc(C4CC4)[nH]n3)C2)n1` (stereo unspecified): the cytotoxicity at 70.5 h is -7.48%. On to `CC(C)c1nc(CN2CCCCC2Cn2cncn2)cs1` (stereo unspecified), for which the cytotoxicity at 70.5 h was 16.2%.

`CN(Cc1cscn1)C1CCCN(c2cccnn2)C1` (stereo unspecified): the cytotoxicity at 70.5 h turned out to be 18%. The result for `CCc1nc(CN(C)C2CCCN(c3cccnn3)C2)no1` (stereo unspecified) reads 16.7%; that for `CCc1nnc(CN2CCCCC2Cn2nc(C)nc2C)o1` (stereo unspecified), -5.83%; that for `CC(C)C(Sc1nnnn1C1CC1)C(=O)NCc1ccccc1` (stereo unspecified), -7.04%.

Turning to `Cc1ccc(-c2noc(CN3CCC(N4CCNC4=O)CC3)n2)cc1`, the cytotoxicity at 70.5 h was 20.8%. The result for `Cc1cc(C)n(CC2CN(CC(=O)Nc3ccncc3)CCO2)n1` (stereo unspecified) reads -2.52%. The result for `Cc1cc(C)n(CC2CN(CC(=O)NC3CCOCC3)CCO2)n1` (stereo unspecified) reads 15.9%. `COc1ncc(C2(O)CCN(Cc3cccs3)CC2)c(OC)n1`: the cytotoxicity at 70.5 h is -8.54%. To `CC(C)OCCCN(CC(=O)N1CCNCC1)C(=O)c1cccc(Cl)c1` belongs -18.5%.

Source of the values: ChEMBL document CHEMBL3507680, “University of Dundee, Gates Library screen for HepG2 cell viability”.
